From patent US6737383B1, “Herbicidal oxadiazolidines” (priority 1999, dated 2004)

Experiments:
[1] = tested on: surinam grass; experiment: Test B pre/postemergence surinam grass; format: in vivo, Brachiaria decumbens
How it was run: (§1)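 Response is a visual 0-to-10 score relative to untreated plants, where 0 means no effect and 10 means complete control, taken twelve to sixteen days after application. Treatments went onto soil at planting and onto foliage of 1- to 4-leaf plants, using a surfactant-containing non-phytotoxic solvent.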

[2] = tested on: rape; experiment: Test B pre/postemergence rape; format: in vivo, Brassica napus
How it was run: as §1

[3] = tested on: giant foxtail; experiment: Test B pre/postemergence giant foxtail; format: in vivo, Setaria faberii
How it was run: as §1

[4] = tested on: sugar beet; experiment: Test B pre/postemergence sugar beet; format: in vivo, Beta vulgaris
How it was run: as §1

[5] = tested on: smallflower flatsedge; experiment: Test B flood test smallflower flatsedge; format: in vivo, Cyperus difformis
How it was run: (§2)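 Flood test on plants grown to the 2-leaf stage; treated plants kept in greenhouse twelve to sixteen days, then visually rated against controls on a 0 (no effect) to 10 (complete control) scale.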

[6] = tested on: wild oat; experiment: Test B pre/postemergence wild oat; format: in vivo, Avena fatua
How it was run: as §1

[7] = tested on: velvetleaf; experiment: Test B pre/postemergence velvetleaf; format: in vivo, Abutilon theophrasti
How it was run: as §1

[8] = tested on: wheat; experiment: Test B pre/postemergence wheat; format: in vivo, Triticum aestivum
How it was run: as §1

[9] = tested on: bedstraw; experiment: Test B pre/postemergence bedstraw; format: in vivo, Galium aparine; conditions: Preemergence
How it was run: as §1

[10] = tested on: pigweed; experiment: Test B pre/postemergence pigweed; format: in vivo, Amaranthus retroflexus
How it was run: as §1

[11] = tested on: duck salad; experiment: Test B flood test duck salad; format: in vivo, Heteranthera limosa
How it was run: as §2

[12] = tested on: rice; experiment: Test B flood test rice; format: in vivo, Oryza sativa
How it was run: as §2

[13] = tested on: cocklebur; experiment: Test B pre/postemergence cocklebur; format: in vivo, Xanthium strumarium
How it was run: as §1

[14] = tested on: blackgrass; experiment: Test B pre/postemergence blackgrass; format: in vivo, Alopecurus myosuroides
How it was run: as §1

[15] = tested on: morningglory; experiment: Test B pre/postemergence morningglory; format: in vivo, Ipomoea hederacea
How it was run: as §1

[16] = tested on: purple nutsedge; experiment: Test B pre/postemergence purple nutsedge; format: in vivo, Cyperus rotundus
How it was run: as §1

[17] = tested on: bamyardgrass; experiment: Test B flood test barnyardgrass; format: in vivo, Echinochloa crus-galli
How it was run: as §2

[18] = tested on: crabgrass; experiment: Test B pre/postemergence crabgrass; format: in vivo, Digitaria sanguinalis
How it was run: as §1

[19] = tested on: soybean; experiment: Test B pre/postemergence soybean; format: in vivo, Glycine max
How it was run: as §1

[20] = tested on: corn; experiment: Test B pre/postemergence corn; format: in vivo, Zea mays
How it was run: as §1

[21] = Postemergence, Rate 62 g/ha, scale of 0 to 10, 0 is no effect, 10 is complete control
[22] = Postemergence, Rate 125 g/ha, scale of 0 to 10 where 0 is no effect and 10 is complete control
[23] = Postemergence, Rate 250 g/ha, scale of 0 to 10, 0 is no effect, 10 is complete control
[24] = Postemergence, Rate 500 g/ha, scale of 0 to 10 where 0 is no effect and 10 is complete control
[25] = Preemergence, Rate 62 g/ha, scale 0 to 10 (0 no effect, 10 complete control)
[26] = Preemergence, Rate 125 g/ha, scale of 0 to 10 where 0 is no effect and 10 is complete control
[27] = Preemergence, Rate 500 g/ha, scale of 0 to 10 where 0 is no effect and 10 is complete control
[28] = Rate 62 g/ha, flood test species, Pre-emergence, visual evaluation after twelve to sixteen days
[29] = Rate 125 g/ha, under heading Pre-emergence, flood test species, visual evaluation after twelve to sixteen days
[30] = Rate 250 g/ha, Pre-emergence (flood test species), scale 0 to 10, 0 is no effect, 10 is complete control
[31] = Rate 500 g/ha, Pre-emergence section of Table B, 0 to 10 scale (0 no effect, 10 complete control)

COC(C)n1c(=O)on(C(=O)N(c2ccc(F)cc2F)C(C)C)c1=O (stereo not drawn) [Compound 593]
B. signalgrass plant response rating [1, 21]: 0
Plant response rating, B. signalgrass [1, 22]: 0
B. signalgrass plant response rating [1, 23]: 0
Plant response rating, B. signalgrass [1, 24]: 0
B. signalgrass plant response rating [1, 25]: 0
B. signalgrass plant response rating [1, 26]: 0
B. signalgrass plant response rating (0 to 10 scale, 0 is no effect, 10 is complete control) ([1]; Preemergence, Rate 250 g/ha): 0
B. signalgrass plant response rating [1, 27]: 0
Rape plant response rating [2, 21]: 0
Plant response rating, Rape [2, 22]: 0
Rape plant response rating [2, 23]: 0
Plant response rating, Rape [2, 24]: 0
Rape plant response rating [2, 25]: 0
Rape plant response rating [2, 26]: 0
Plant response rating, Rape [2, 27]: 0
Giant foxtail plant response rating [3, 21]: 0
Plant response rating, Giant foxtail [3, 22]: 0
Giant foxtail plant response rating [3, 23]: 0
Plant response rating, Giant foxtail [3, 24]: 0
Giant foxtail plant response rating [3, 25]: 0
Giant foxtail plant response rating [3, 26]: 0
Plant response rating, Giant foxtail [3, 27]: 0
Plant response rating, Sugarbeets [4, 22]: 0
Sugarbeets plant response rating [4, 23]: 0
Plant response rating, Sugarbeets [4, 24]: 0
Sugarbeets plant response rating [4, 25]: 0
Sugarbeets plant response rating [4, 26]: 0
Plant response rating, Sugarbeets [4, 27]: 0
Plant response rating, S. Flatsedge (0 to 10 scale, 0 is no effect, 10 is complete control) [5, 28]: 0
S. Flatsedge plant response rating (0 to 10 scale, 0 is no effect, 10 is complete control) [5, 29]: 0
S. Flatsedge plant response rating [5, 30]: 0
S. Flatsedge plant response rating [5, 31]: 0
Plant response rating, Wild oats [6, 22]: 0
Wild oats plant response rating [6, 23]: 0
Plant response rating, Wild oats [6, 24]: 0
Wild oats plant response rating [6, 25]: 0
Wild oats plant response rating [6, 26]: 0
Plant response rating, Wild oats [6, 27]: 0
Plant response rating, Velvetleaf [7, 22]: 0
Velvetleaf plant response rating [7, 23]: 0
Plant response rating, Velvetleaf [7, 24]: 0
Velvetleaf plant response rating [7, 25]: 0
Velvetleaf plant response rating [7, 26]: 0
Plant response rating, Velvetleaf [7, 27]: 0
Plant response rating, Wheat [8, 22]: 0
Wheat plant response rating [8, 23]: 0
Plant response rating, Wheat [8, 24]: 0
Wheat plant response rating [8, 25]: 0
Wheat plant response rating [8, 26]: 0
Plant response rating, Wheat [8, 27]: 0
Bedstraw plant response rating ([9]; Rate 62 g/ha, scale 0 to 10 (0 no effect, 10 complete control)): 0
Bedstraw plant response rating (0 to 10 scale) ([9]; Rate 250 g/ha): 0
Plant response rating, Redroot pigweed [10, 22]: 0
Redroot pigweed plant response rating [10, 23]: 0
Plant response rating, Redroot pigweed [10, 24]: 0
Redroot pigweed plant response rating [10, 25]: 0
Redroot pigweed plant response rating [10, 26]: 0
Plant response rating, Redroot pigweed [10, 27]: 0
Plant response rating, Ducksalad (0 to 10 scale, 0 is no effect, 10 is complete control) [11, 28]: 0
Ducksalad plant response rating (0 to 10 scale, 0 is no effect, 10 is complete control) [11, 29]: 0
Ducksalad plant response rating [11, 30]: 0
Ducksalad plant response rating [11, 31]: 0
Plant response rating, Rice (0 to 10 scale, 0 is no effect, 10 is complete control) [12, 28]: 0
Rice plant response rating (0 to 10 scale, 0 is no effect, 10 is complete control) [12, 29]: 0
Rice plant response rating [12, 30]: 0
Rice plant response rating [12, 31]: 0
Cocklebur plant response rating [13, 21]: 0
Plant response rating, Cocklebur [13, 22]: 0
Cocklebur plant response rating [13, 23]: 0
Plant response rating, Cocklebur [13, 24]: 0
Cocklebur plant response rating [13, 25]: 0
Cocklebur plant response rating [13, 26]: 0
Cocklebur plant response rating (0 to 10 scale) ([13]; Preemergence, Rate 250 g/ha): 0
Plant response rating, Cocklebur [13, 27]: 0
Blackgrass plant response rating [14, 21]: 0
Plant response rating, Blackgrass [14, 22]: 0
Blackgrass plant response rating [14, 23]: 0
Plant response rating, Blackgrass [14, 24]: 0
Blackgrass plant response rating [14, 25]: 0
Blackgrass plant response rating [14, 26]: 0
Blackgrass plant response rating (0 to 10 scale) ([14]; Preemergence, Rate 250 g/ha): 0
Blackgrass plant response rating [14, 27]: 0
Morningglory plant response rating [15, 21]: 0
Plant response rating, Morningglory [15, 22]: 0
Morningglory plant response rating [15, 23]: 0
Plant response rating, Morningglory [15, 24]: 2
Morningglory plant response rating [15, 25]: 0
Morningglory plant response rating [15, 26]: 0
Plant response rating, Morningglory [15, 27]: 0
Nutsedge plant response rating [16, 21]: 0
Plant response rating, Nutsedge [16, 22]: 0
Nutsedge plant response rating [16, 23]: 0
Plant response rating, Nutsedge [16, 24]: 0
Nutsedge plant response rating [16, 25]: 0
Nutsedge plant response rating [16, 26]: 0
Plant response rating, Nutsedge [16, 27]: 2
Plant response rating, Barnyardgrass (0 to 10 scale, 0 is no effect, 10 is complete control) [17, 28]: 0
Barnyardgrass plant response rating (0 to 10 scale, 0 is no effect, 10 is complete control) [17, 29]: 0
Barnyardgrass plant response rating [17, 30]: 0
Barnyardgrass plant response rating [17, 31]: 0
Crabgrass plant response rating [18, 21]: 0
Plant response rating, Crabgrass [18, 22]: 0
Crabgrass plant response rating [18, 23]: 0
Crabgrass plant response rating [18, 25]: 0
Crabgrass plant response rating [18, 26]: 0
Plant response rating, Crabgrass [18, 27]: 0
Plant response rating, Soybean [19, 22]: 0
Soybean plant response rating [19, 23]: 0
Plant response rating, Soybean [19, 24]: 1
Soybean plant response rating [19, 25]: 0
Soybean plant response rating [19, 26]: 0
Plant response rating, Soybean [19, 27]: 0
Corn plant response rating [20, 21]: 0
Plant response rating, Corn [20, 22]: 0
Corn plant response rating [20, 23]: 0
Plant response rating, Corn [20, 24]: 0
Corn plant response rating [20, 25]: 0
Corn plant response rating [20, 26]: 0
Corn plant response rating (0 to 10 scale) ([20]; Preemergence, Rate 250 g/ha): 0
Plant response rating, Corn [20, 27]: 0
